Literature values in US12378302B2, “Fusion molecules and uses thereof” (Foundation Medicine, Inc., priority 2012, dated 2025).
Values belong to the compound of their own block, whether it stands above or below them.

Columns and labels:
ErbB3 = ErbB3 (Homo sapiens, UniProt P21860)
ErbB4 = target: T1, ErbB4 (Homo sapiens, UniProt Q15303)
T1 construct: host or cells: glioblastoma cell lines

MEK1/2 = details: read-out: IC50 against MEK1/2
mTOR [1] = details: for selective for mTOR than PI3Kγ: mTOR vs PI3Kγ
MEK = details: read-out: IC50 against MEK
mTOR [2] = target: mTOR (Homo sapiens, UniProt P42345)
ESRP1-RAF1 = ESRP1-RAF1 (Homo sapiens, UniProt P04049); details: treatment with Mek inhibitor
Sequence of ESRP1-RAF1 (P04049 331-648 limits assumed): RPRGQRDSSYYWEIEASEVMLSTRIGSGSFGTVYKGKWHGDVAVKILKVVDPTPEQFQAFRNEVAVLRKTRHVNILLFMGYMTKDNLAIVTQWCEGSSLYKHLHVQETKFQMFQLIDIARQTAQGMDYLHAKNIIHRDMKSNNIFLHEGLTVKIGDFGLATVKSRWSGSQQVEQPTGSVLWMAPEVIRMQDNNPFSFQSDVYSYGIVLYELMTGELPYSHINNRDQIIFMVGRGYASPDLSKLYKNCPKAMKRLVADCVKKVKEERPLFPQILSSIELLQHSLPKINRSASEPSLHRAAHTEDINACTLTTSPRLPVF

[3] = test system: InsR, EGFR, c-Met, EphA2, Tie2, IGFR1 and HER2

Sequence of ErbB3 (P21860 20-1342): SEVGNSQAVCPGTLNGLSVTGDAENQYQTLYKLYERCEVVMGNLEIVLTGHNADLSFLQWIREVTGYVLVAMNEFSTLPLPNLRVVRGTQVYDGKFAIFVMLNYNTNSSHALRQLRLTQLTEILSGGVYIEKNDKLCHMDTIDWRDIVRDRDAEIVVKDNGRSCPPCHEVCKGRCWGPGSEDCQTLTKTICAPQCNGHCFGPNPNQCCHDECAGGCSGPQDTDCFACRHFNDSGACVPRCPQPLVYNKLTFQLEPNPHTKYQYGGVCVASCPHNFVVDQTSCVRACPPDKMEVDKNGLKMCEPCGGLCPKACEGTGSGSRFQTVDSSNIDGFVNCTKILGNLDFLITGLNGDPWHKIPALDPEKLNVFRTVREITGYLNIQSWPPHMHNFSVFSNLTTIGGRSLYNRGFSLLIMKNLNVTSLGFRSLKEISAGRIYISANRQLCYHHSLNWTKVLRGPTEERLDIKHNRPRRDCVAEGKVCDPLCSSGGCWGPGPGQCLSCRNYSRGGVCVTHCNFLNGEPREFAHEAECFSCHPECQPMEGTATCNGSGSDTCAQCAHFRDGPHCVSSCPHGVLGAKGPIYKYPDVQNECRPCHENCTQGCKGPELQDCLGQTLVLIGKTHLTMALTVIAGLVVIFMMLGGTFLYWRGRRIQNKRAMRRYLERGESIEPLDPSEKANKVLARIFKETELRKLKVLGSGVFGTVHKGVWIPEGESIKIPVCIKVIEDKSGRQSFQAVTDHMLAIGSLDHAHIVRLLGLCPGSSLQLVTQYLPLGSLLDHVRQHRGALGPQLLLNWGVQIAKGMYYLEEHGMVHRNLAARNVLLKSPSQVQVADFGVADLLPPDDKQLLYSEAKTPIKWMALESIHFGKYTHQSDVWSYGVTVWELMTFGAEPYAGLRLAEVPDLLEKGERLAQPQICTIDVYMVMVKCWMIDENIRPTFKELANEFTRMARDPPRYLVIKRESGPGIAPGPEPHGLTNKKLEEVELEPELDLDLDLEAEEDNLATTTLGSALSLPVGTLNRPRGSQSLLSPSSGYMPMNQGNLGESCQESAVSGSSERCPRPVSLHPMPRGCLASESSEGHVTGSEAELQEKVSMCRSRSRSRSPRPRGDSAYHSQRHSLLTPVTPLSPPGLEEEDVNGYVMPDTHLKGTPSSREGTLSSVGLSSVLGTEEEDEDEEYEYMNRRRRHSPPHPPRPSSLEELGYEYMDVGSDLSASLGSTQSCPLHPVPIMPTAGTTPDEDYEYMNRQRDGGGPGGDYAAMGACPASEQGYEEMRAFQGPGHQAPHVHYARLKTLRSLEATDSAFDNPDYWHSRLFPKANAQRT
T1 sequence (Q15303 26-1308): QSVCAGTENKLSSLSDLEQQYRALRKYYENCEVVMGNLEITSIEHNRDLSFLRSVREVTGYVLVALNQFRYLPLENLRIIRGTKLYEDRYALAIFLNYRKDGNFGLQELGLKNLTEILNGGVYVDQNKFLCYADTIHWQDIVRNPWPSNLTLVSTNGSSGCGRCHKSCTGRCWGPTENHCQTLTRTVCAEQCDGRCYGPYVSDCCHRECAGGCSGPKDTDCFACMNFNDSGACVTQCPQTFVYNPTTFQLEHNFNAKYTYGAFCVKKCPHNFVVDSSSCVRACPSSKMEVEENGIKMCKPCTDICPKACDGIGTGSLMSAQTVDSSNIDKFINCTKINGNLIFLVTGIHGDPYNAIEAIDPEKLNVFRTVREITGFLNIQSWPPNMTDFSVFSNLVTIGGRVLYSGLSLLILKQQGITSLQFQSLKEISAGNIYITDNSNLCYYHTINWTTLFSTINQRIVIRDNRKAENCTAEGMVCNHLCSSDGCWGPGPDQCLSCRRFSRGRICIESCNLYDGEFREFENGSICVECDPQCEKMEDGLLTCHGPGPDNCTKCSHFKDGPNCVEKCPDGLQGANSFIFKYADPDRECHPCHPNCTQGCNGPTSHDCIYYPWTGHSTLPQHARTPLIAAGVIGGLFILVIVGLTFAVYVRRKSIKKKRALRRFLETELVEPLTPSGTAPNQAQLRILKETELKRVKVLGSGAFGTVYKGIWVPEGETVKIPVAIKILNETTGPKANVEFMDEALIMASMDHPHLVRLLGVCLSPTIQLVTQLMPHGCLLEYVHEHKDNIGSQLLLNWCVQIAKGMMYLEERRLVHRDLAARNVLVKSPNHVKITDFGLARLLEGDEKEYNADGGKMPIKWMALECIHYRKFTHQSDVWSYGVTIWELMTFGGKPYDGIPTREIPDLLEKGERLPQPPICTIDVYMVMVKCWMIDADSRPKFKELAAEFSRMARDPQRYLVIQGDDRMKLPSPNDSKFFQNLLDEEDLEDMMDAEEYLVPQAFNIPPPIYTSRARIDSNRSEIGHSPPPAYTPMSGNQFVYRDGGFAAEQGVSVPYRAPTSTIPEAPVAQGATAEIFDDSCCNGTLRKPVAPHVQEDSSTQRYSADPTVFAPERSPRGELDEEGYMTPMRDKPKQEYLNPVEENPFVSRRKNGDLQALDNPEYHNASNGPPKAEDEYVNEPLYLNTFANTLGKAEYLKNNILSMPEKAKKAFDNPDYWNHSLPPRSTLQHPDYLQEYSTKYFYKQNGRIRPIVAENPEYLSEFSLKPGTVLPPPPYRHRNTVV

binding to ErbB3, preventing phosphorylation and therefore activation (ErbB3): bind
binding to ErbB4, preventing phosphorylation and therefore activation (ErbB4): bind
Structure (SMILES): COc1cc2ncnc(Nc3cccc(Cl)c3)c2cc1OC [AG1478]
Akt/Erk pathway (glioblastoma cell lines): decrease
cell cycle (glioblastoma cell lines): cell cycle arrest

IC50 (MEK1/2): ~7 nM
Structure (SMILES): Cc1cc(C(=O)NOCCO)c(Nc2ccc(I)cc2F)n(C)c1=O [AZD8330, 2-(2-fluoro-4-iodophenylamino)-N-(2-hydroxyethoxy)-1,5-dimethyl-6-oxo-1,6-dihydropyridine-3-carboxamide]

Structure (SMILES): CC(C)n1nc(-c2ccc3oc(N)nc3c2)c2c(N)ncnc21 [INK 128, 3-(2-aminobenzo[d]oxazol-5-yl)-1-isopropyl-1H-pyrazolo[3,4-d]pyrimidin-4-amine]
less potent to class I PI3K isoforms (mTOR [1]; mTOR vs class I PI3K isoforms): > 200 fold

Structure (SMILES): COc1cccc2cc(-c3nc([C@H]4CC[C@H](C(=O)O)CC4)n4ncnc(N)c34)[nH]c12 [OSI-027, (1r,4r)-4-(4-amino-5-(7-methoxy-1H-indol-2-yl)imidazo[1,5-f][1,2,4]triazin-7-yl)cyclohexanecarboxylic acid]
selectivity for mTOR than PI3Kα, PI3Kβ, PI3Kγ or DNA-PK (mTOR [1]; mTOR vs PI3Kα, PI3Kβ, PI3Kγ or DNA-PK): more than 100 fold

IC50 (MEK): 8 nM
Structure (SMILES): Cc1cc(I)ccc1Nc1c(C(=O)NOCC2CC2)cc(F)c(F)c1F [PD198306, Benzamide, N-(cyclopropylmethoxy)-3,4,5-trifluoro-2-[(4-iodo-2-methylphenyl)amino]-]

Structure (SMILES): O=C(NOC[C@H](O)CO)c1ccc(F)c(F)c1Nc1ccc(I)cc1F [PD0325901, (R)—N-(2,3-dihydroxypropoxy)-3,4-difluoro-2-(2-fluoro-4-iodophenylamino)benzamide]
More potent than CI-1040 on phosphorylation of ERK1 and ERK2 (ERK1/2 phosphorylation): roughly 500 fold

IC50 (mTOR [2]): 0.2 nM
Structure (SMILES): CO[C@H]1C[C@@H]2CC[C@@H](C)[C@@](O)(O2)C(=O)C(=O)N2CCCC[C@H]2C(=O)O[C@H]([C@H](C)C[C@@H]2CC[C@@H](OP(C)(C)=O)[C@H](OC)C2)CC(=O)[C@H](C)/C=C(\C)[C@@H](O)[C@@H](OC)C(=O)[C@H](C)C[C@H](C)/C=C/C=C/C=C/1C [Ridaforolimus]

IC50 (ERK1/2 phosphorylation): 10 nM
Structure (SMILES): Cn1cnc2c(F)c(Nc3ccc(Br)cc3Cl)c(C(=O)NOCCO)cc21 [Selumetinib, 6-(4-bromo-2-chloroanilino)-7-fluoro-N-(2-hydroxyethoxy)-3-methylbenzimidazole-5-carboxamide]

IC50 (mTOR [2]): 1760 nM
Structure (SMILES): COC1CC2CCC(C)C(O)(O2)C(=O)C(=O)N2CCCCC2C(=O)OC(C(C)CC2CCC(OC(=O)C(C)(CO)CO)C(OC)C2)CC(=O)C(C)/C=C(\C)C(O)C(OC)C(=O)C(C)CC(C)/C=C/C=C/C=C/1C (stereo not shown) [Temsirolimus, Rapamycin, 42-[3-hydroxy-2-(hydroxymethyl)-2-methylpropanoate]]

Structure (SMILES): N#CC(=C(/N)Sc1ccccc1N)/C(C#N)=C(\N)Sc1ccccc1N [U0126]
oncogenic activity of ESRP1-RAF1 cells (ESRP1-RAF1): reduction of oncogenic activity

Structure (SMILES): c1cncc(CN2CCC(n3ncc4c(N5CCOCC5)nc(-c5ccc6[nH]ccc6c5)nc43)CC2)c1 [WAY-600, 6-(1H-indol-5-yl)-4-morpholino-1-(1-(pyridin-3-ylmethyl)piperidin-4-yl)-1H-pyrazolo[3,4-d]pyrimidine]
selective for mTOR than PI3Kα (mTOR [1]; mTOR vs PI3Kα): > 100 fold
selective for mTOR than PI3Kγ (mTOR [1]): > 500 fold

Structure (SMILES): COC(=O)Nc1ccc(-c2nc(N3CCOCC3)c3cnn(C4CCN(C(=O)OC)CC4)c3n2)cc1 [WYE-354]
selective for mTOR than PI3Kα (mTOR [1]; mTOR vs PI3Kα): > 100 fold
selective for mTOR than PI3Kγ (mTOR [1]): > 500 fold

Structure (SMILES): CN1CCN(c2ccc3nc(-c4c(N)c5c(F)cccc5[nH]c4=O)[nH]c3c2)CC1 [dovitinib]
Potency to InsR, EGFR, c-Met, EphA2, Tie2, IGFR1 (IGF-1R) and HER2 [3]: less potent

binding to ErbB3, preventing phosphorylation and therefore activation (ErbB3): bind
binding to ErbB4, preventing phosphorylation and therefore activation (ErbB4): bind
Structure (SMILES): C#Cc1cccc(Nc2ncnc3cc(OCCOC)c(OCCOC)cc23)c1 [erlotinib]
Akt/Erk pathway (glioblastoma cell lines): decrease
cell cycle (glioblastoma cell lines): cell cycle arrest
